From US12497394B2, “Fused-cyclic pyrazolone formamide compound and preparation method therefor, pharmaceutical composition and use thereof” (SHANGHAI INSTITUTE OF MATERIA MEDICA, CHINESE ACADEMY OF …, priority 2018, dated 2025)

What was measured:
Assay type in all cases: biochemical
Settings in all cases: 50 nM
ASK1/MAP3K5 = ASK1/MAP3K5 (Homo sapiens, UniProt Q99683); assay: Kinase profile screen: ASK1/MAP3K5
Text: (§1) Experimental Example 2: Study on the Selectivity of the Kinase Profile of the Compound Due to compound's potent inhibitory activity against AXL, we selected one of the compounds, DC621044, to screen 369 kinase profiles in order to investigate the compound's selectivity to the kinase profile.

DDR1 = DDR1 (Homo sapiens, UniProt Q08345); assay: Kinase profile screen: DDR1
Text: as §1

RON/MSTIR = RON/MSTIR (Homo sapiens, UniProt Q04912); assay: Kinase profile screen: RON/MSTIR
Text: as §1

EGFR = EGFR (Homo sapiens, UniProt P00533); assay: Kinase profile screen: EGFR
Text: as §1

c-Src = c-Src (Homo sapiens, UniProt P12931); assay: Kinase profile screen: c-Src
Text: as §1

TRKB = TRKB (Homo sapiens, UniProt Q16620); assay: Kinase profile screen: TRKB
Text: as §1

FLT3 = FLT3 (Homo sapiens, UniProt P36888); assay: Kinase profile screen: FLT3
Text: as §1

PLK4/SAK = PLK4/SAK (Homo sapiens, UniProt O00444); assay: Kinase profile screen: PLK4/SAK
Text: as §1

FYN = FYN (Homo sapiens, UniProt P06241); assay: Kinase profile screen: FYN
Text: as §1

HIPK4 = HIPK4 (Homo sapiens, UniProt Q8NE63); assay: Kinase profile screen: HIPK4
Text: as §1

MER = MER (Homo sapiens, UniProt Q12866); assay: Kinase profile screen: MER
Text: as §1

Chain of HIPK4 (Q8NE63 whole entry, species assumed): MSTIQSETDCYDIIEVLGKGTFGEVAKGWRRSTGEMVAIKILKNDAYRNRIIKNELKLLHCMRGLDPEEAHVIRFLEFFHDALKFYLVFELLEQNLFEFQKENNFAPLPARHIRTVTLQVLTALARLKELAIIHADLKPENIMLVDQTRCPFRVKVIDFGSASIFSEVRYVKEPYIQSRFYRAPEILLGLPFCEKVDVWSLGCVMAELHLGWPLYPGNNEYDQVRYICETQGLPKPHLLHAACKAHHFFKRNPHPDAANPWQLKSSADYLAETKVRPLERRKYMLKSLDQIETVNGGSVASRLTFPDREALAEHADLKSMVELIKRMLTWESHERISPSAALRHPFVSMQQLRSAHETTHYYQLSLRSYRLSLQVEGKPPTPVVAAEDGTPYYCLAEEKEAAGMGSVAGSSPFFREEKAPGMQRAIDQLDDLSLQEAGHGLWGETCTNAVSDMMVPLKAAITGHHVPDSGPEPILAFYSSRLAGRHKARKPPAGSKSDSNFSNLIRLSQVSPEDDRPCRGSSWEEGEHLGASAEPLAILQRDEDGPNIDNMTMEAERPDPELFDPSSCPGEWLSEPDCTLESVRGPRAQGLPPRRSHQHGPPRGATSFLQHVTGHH
Chain of PLK4/SAK (O00444 whole entry): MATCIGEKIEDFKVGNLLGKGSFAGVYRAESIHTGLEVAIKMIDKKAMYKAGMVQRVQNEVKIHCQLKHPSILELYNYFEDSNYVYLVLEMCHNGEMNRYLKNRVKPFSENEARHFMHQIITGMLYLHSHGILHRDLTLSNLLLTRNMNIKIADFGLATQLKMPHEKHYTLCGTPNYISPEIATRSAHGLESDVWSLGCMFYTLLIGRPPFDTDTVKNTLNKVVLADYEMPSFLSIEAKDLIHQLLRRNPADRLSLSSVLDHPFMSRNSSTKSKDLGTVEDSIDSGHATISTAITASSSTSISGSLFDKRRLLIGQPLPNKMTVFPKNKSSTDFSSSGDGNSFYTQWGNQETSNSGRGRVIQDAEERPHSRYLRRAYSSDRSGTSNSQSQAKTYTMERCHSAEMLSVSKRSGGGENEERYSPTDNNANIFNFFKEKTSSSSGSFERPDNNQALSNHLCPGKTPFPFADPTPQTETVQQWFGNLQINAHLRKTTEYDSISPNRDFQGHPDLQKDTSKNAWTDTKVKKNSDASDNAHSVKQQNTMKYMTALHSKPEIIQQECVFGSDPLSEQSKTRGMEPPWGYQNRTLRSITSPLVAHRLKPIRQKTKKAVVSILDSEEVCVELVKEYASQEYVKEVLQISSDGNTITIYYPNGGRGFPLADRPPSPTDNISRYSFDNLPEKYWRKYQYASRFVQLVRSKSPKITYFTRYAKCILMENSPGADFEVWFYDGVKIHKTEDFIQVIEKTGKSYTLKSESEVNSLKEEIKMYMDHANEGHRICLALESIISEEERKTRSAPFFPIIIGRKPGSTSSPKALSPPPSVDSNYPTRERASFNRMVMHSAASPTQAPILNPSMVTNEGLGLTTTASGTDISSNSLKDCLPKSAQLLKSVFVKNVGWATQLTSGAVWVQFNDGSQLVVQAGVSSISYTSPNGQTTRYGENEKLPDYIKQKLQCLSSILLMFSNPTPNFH
Chain of EGFR (P00533 25-1210, species assumed): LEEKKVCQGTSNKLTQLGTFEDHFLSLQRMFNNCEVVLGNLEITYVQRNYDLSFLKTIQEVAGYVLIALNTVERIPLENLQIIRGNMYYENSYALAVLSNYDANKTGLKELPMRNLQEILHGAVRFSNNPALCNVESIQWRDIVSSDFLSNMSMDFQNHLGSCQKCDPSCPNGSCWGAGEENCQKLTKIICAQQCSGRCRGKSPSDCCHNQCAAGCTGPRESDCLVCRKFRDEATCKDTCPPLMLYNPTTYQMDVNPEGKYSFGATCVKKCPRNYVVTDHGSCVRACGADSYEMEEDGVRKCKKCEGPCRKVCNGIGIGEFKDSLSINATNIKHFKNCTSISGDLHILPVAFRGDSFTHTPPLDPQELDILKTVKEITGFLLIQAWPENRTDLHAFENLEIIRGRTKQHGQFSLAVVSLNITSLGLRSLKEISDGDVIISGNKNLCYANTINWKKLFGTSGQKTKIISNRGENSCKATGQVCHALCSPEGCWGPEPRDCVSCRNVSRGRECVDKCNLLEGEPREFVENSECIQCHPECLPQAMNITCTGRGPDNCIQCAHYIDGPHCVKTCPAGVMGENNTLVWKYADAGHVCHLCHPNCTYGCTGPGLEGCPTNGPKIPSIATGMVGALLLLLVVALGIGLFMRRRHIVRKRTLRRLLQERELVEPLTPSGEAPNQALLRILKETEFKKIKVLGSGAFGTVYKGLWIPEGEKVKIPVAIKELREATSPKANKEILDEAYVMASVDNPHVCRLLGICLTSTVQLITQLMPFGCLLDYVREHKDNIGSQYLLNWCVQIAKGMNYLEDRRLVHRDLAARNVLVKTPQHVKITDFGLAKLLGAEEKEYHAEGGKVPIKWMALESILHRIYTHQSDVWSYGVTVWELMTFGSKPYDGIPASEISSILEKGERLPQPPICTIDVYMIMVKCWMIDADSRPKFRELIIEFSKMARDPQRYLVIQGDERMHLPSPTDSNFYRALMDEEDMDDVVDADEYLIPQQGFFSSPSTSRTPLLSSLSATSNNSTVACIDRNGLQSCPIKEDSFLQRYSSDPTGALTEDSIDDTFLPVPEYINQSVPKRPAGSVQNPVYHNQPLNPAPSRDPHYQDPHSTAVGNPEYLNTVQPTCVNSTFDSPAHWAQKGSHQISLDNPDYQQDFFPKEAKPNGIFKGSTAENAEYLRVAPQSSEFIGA
Chain of RON/MSTIR (Q04912 25-1400): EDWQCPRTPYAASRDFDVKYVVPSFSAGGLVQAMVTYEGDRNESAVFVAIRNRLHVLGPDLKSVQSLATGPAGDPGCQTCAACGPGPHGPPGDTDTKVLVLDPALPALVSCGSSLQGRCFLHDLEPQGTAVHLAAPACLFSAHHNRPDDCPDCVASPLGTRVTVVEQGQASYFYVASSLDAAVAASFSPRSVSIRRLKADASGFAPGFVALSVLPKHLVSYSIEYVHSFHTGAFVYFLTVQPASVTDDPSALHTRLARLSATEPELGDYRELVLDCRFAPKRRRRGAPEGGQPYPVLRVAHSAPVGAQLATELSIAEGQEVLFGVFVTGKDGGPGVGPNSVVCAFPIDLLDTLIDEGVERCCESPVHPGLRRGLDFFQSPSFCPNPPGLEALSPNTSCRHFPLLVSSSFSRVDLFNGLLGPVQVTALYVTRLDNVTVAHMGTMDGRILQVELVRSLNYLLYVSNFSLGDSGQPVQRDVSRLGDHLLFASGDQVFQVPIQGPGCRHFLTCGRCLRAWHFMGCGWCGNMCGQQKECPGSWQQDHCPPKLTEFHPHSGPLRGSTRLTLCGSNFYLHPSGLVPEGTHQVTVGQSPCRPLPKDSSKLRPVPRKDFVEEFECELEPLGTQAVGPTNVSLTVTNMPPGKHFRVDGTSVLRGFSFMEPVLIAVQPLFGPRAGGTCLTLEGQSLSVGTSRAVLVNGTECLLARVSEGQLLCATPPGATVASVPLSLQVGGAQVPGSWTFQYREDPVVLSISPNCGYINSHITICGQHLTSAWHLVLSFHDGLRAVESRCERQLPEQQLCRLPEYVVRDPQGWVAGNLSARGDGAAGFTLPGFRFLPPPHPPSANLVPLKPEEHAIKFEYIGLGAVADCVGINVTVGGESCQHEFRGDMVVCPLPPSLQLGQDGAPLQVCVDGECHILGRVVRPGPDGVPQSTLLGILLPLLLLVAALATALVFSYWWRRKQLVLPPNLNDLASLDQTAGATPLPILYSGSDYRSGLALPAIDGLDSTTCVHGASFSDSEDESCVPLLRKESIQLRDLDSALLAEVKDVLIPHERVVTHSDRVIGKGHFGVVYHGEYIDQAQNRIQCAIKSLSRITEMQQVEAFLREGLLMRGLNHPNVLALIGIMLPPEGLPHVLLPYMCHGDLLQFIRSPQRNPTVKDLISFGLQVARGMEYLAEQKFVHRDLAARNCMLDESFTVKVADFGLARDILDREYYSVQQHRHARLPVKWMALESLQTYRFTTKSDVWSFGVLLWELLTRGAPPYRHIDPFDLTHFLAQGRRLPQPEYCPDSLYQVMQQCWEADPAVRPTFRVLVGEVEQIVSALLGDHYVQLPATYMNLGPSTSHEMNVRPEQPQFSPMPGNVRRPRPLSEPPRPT
Chain of TRKB (Q16620 32-822, species assumed): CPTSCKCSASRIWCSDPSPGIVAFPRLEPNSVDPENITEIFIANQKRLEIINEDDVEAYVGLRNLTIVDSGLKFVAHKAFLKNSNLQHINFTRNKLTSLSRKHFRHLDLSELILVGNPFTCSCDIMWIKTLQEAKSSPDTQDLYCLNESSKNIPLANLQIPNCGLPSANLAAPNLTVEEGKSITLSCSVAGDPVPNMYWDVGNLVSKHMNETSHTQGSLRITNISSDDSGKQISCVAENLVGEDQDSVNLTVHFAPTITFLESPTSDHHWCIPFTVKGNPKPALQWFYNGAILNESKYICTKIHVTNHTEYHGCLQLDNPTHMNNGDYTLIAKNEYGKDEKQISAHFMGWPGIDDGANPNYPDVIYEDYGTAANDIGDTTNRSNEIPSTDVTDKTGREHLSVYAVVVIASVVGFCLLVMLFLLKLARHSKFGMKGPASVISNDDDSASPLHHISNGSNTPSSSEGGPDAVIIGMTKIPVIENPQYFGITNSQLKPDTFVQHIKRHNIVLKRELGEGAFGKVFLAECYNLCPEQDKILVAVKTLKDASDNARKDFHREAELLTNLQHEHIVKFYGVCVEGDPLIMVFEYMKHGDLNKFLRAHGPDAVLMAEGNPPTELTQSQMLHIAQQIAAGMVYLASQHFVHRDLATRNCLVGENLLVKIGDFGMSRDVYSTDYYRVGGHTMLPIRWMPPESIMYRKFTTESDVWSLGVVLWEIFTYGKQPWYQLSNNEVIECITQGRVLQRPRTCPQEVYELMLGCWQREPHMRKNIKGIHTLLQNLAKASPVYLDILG

inhibition at 0.05 µM (ASK1/MAP3K5; the first time): 22.5% | inhibition at 0.05 µM (ASK1/MAP3K5; the second time): 23.5% | inhibition at 0.05 µM (DDR1; the first time): 64.1% | inhibition at 0.05 µM (DDR1; the second time): 64.2% | inhibition at 0.05 µM (RON/MSTIR; the first time): 25.9% | inhibition at 0.05 µM (RON/MSTIR; the second time): 27.2% | inhibition at 0.05 µM (EGFR; the first time): 17.9% | inhibition at 0.05 µM (EGFR; the second time): 18.6% | inhibition at 0.05 µM (c-Src; the first time): 20% | inhibition at 0.05 µM (c-Src; the second time): 21% | inhibition at 0.05 µM (TRKB; the first time): 52.1% | inhibition at 0.05 µM (TRKB; the second time): 52.2% | inhibition at 0.05 µM (FLT3; the first time): 28% | inhibition at 0.05 µM (FLT3; the second time): 29.3% | inhibition at 0.05 µM (PLK4/SAK; the first time): 27.2% | inhibition at 0.05 µM (PLK4/SAK; the second time): 29.8% | inhibition at 0.05 µM (FYN; the first time): 22.4% | inhibition at 0.05 µM (FYN; the second time): 27.7% | inhibition at 0.05 µM (HIPK4; the first time): 77.2% | inhibition at 0.05 µM (HIPK4; the second time): 77.2% | inhibition at 0.05 µM (MER; the first time): 99.4% | inhibition at 0.05 µM (MER; the second time): 99.5%
SMILES: COCCOc1cc2ncnc(Oc3ccc(NC(=O)c4c5n(n(-c6ccc(F)cc6)c4=O)CCCC5)cc3F)c2cc1OCCOC [DC621044, N-(4-((6,7-bis(2-methoxyethoxy)quinazolin-4-yl)oxy)-3-fluorophenyl)-1-(4-fluorophenyl)-2-oxo-1,2,4,5,6,7-hexahydropyrazolo[1,5-a]pyridine-3-formamide]
